Source: US20240026458A1, “Method for Determining Sensitivity to an Antineoplastic Agent” (UNIVERSITÉ LIBRE DE BRUXELLES, priority 2020, published 2024)

Assays:
[1] = test system: SOX2 expression; experiment: SOX2 mRNA (RT-qPCR) and protein (Western blot) in FAT1 WT cells treated with EZH2 inhibitor; assay type: cell-based, human; conditions: GSK343 500 nM, 7 days, versus DMSO
Description: (§1) The cells were lysed in cell lysis buffer (Cell Signaling, catalog #9803) with phosphatase inhibitor cocktail (Cell Signaling, catalog 5870) and 1 mM PMSF (Sigma, Cat #P7626) for 5 minutes on ice, sonicated 5 times 10 seconds and then centrifuged for 10 min at 14.000 rpm at 4° C. A range of 5 to 30 micrograms of cell lysate was loaded in NuPage 10% Bis-Tris gel (Invitrogen, Cat #NP0315BOX) and separated by electrophoresis. Proteins were transferred on nitrocellulose membranes (Thermo Scientific, Cat #88018). […]
RNA extraction from FACS isolated cells was performed using RNeasy micro kit (QIAGEN) according to the manufacturer's recommendations. For real-time PCR, after nanodrop quantification, the first strand cDNA was synthesized using Superscript II (Invitrogen) and random hexamers (Roche) in […] final volume. Control of genomic contaminations was measured for each sample by performing the same procedure with or without reverse transcriptase. Quantitative PCR assays were performed using 1 ng of cDNA as template, SYBRGreen mix (Applied Bioscience) on Light Cycler 96 (Roche) real-time PCR system. […]

[2] = test system: H3K27me3; experiment: Western blot of global H3K27me3 in cells treated with inhibitor; assay type: cell-based, human; conditions: versus DMSO
Description: The cells were lysed in cell lysis buffer (Cell Signaling, catalog #9803) with phosphatase inhibitor cocktail (Cell Signaling, catalog 5870) and 1 mM PMSF (Sigma, Cat #P7626) for 5 minutes on ice, sonicated 5 times 10 seconds and then centrifuged for 10 min at 14.000 rpm at 4° C. A range of 5 to 30 micrograms of cell lysate was loaded in NuPage 10% Bis-Tris gel (Invitrogen, Cat #NP0315BOX) and separated by electrophoresis. Proteins were transferred on nitrocellulose membranes (Thermo Scientific, Cat #88018). The membranes were incubated overnight with anti-phospho-CAMK2 (Rabbit, 1/133, Cell Signaling, clone D21E4, cat #12716) or anti-phospho-SCR Tyr416 (Rabbit, 1:3000, Cell Signaling, clone D49G4, Cat #6943) or anti-H3K27Me3 Lys27 (Rabbit, 1:3000, Millipore, Cat #17-622) or anti-phospho-MEK1/MEK2 Ser218, SER222, Ser226 (Rabbit, 1:1000, Invitrogen, Cat #44-454G) or anti-phospho-EGFR Y1197 (Rat, 1:500, R&D, MAB8058), anti-CAMK2 (pan) (Rabbit, 1/125, Cell Signaling, clone D11A10, cat #4436) or anti-SRC (Rabbit, 1:1000, Cell Signaling, clone32G6, Cat #2123) or anti-H3 (Rabbit, 1:6000, Abcam, Cat #ab1791) or anti-MEK1/MEK2 (Rabbit, 1:1000, Invitrogen, Cat #PA5-31917) or anti-EGFR (Rabbit, 1:1000, Cell Signaling, clone D38B1, Cat #4267), anti-YES (Rabbit, 1:1000, Cell Signaling, clone D9P3E, Cat #65890) and anti-β-actin (1:2000, Abcam, Cat #ab8227). […]

[3] = test system: FAT1 KO human SCC cells; experiment: Expression of YAP1, ZEB1, E-Cadherin and SOX2 (immunostaining) in FAT1 KO cells treated with CAMK2 or SRC inhibitors; assay type: cell-based
Description: After 96 h the cells were collected for WB as described above or for FACS analysis. For immunostaining present inventors followed the same treatment but the cells were plated previously on coverslips covered with gelatin.
After 72 h the cells were collected for WB or immunostaining as described above.

[4] = test system: FAT1 WT and FAT1 KO human SCC cells (A388); experiment: Drug sensitivity assay (cell viability by FACS), FAT1 WT versus FAT1 KO cells; assay type: cell-based; conditions: cell viability at 48 h, serial dilution of inhibitor, 5% FBS medium
Description: For the drug sensitivity assay, cells have been seeded at a density of 4000 cells/well in a 96 well plate. […] 48 hours after the start of treatment, cells have been harvested by trypsinization, and quantified by counting the number of living cells by FACS. Living cells were selected by forward and side scatter and by Hoechst dye exclusion. Each data point is the result of at least three independent replicates; each of the replicates is evaluated using a technical duplicate. Drug response curves and IC50 values have been calculated using the Prism8 software.

[5] = test system: SRC/YES phosphorylation; experiment: Western blot of phosphorylated SRC/YES in FAT1 KO cells treated with inhibitor; assay type: cell-based, human; conditions: KN93 10 μM, 96 h, versus DMSO
Description: A388 cells (human skin SCC) cells were maintained in DMEM medium supplemented with 10% FBS, 100 U/ml Pen/Strep and 2 mM L-glutamine. 293T cells were maintained in DMEM (Gibco) supplemented with 10% FBS, 2 mM Glutamine, 100 U/ml Pen/Strep solution, MEM Non-Essential Amino Acids Solution and Pyruvate. All cell lines were acquired from ATCC and cultured at 37 degrees with 20% 02 and 5% CO2.
as §1

[6] = test system: surface CD44; experiment: FACS analysis of surface CD44 in FAT1 KO cells treated with inhibitor; assay type: cell-based, human; conditions: CAMK2 inhibitor (KN93) 10 μM, versus DMSO
Description: CD44 expression in FAT1 WT and FAT1 KO human SCC cells was performed after trypsinization of cells and incubation with APC conjugated anti-CD44 (Clone IM7, BioLegend Cat #103011, dilution 1:50) antibody. Living tumor cells were selected by forward and side scatter, doublets discriminating and DAPI dye exclusion.
For CAMK2 inhibition present inventors used CAMK2 inhibitor KN93 (Selleckchem Cat #57423, dissolved in DMSO) at 10 μM and present inventors incubated cells during 96 h refreshing the medium once after 48 h. After 96 h the cells were collected for WB as described above or for FACS analysis. For immunostaining present inventors followed the same treatment but the cells were plated previously on coverslips covered with gelatin.

[7] = FAT1 KO cells treated with inhibitor (data not shown)

| SMILES | SOX2 mRNA expression [1] | SOX2 protein expression [1] | H3K27me3 ([2]; FAT1 WT cells, GSK343 500 nM, 7 days) | SOX2 expression ([3]; FAT1 KO TCs treated with inhibitor (data not shown)) | E-Cadherin expression [3, 7] | ZEB1 [3, 7] | colony morphology [3, 7] | nuclear YAP1 [3, 7] | sensitivity of FAT1 KO cells as compared to FAT1 WT cells [4] | SRC/YES phosphorylation levels [5] | levels of surface CD44 [6] | global levels of H3K27me3 ([2]; FAT1 KO cells treated with CAMK2 inhibitor) |
| --- | --- | --- | --- | --- | --- | --- | --- | --- | --- | --- | --- | --- |
| CCCc1cc(C)[nH]c(=O)c1CNC(=O)c1cc(-c2ccnc(N3CCN(C)CC3)c2)cc2c1cnn2C(C)C [GSK343] | increased | increased | decreased | – | – | – | – | – | – | – | – | – |
| COc1ccc(S(=O)(=O)N(CCO)c2ccccc2CN(C)C/C=C/c2ccc(Cl)cc2)cc1 [KN93] | – | – | – | decrease | increase | strong decrease | more compact epithelial colonies | strong decrease | significantly more sensitive | greatly decreased | decreased significantly | increased |
